Measurements published in US12569495B2, “Inhibitors of porcine reproductive and respiratory syndrome virus” (UNIVERSITY OF CONNECTICUT, priority 2020, dated 2026).
“Also recorded” adds a separate entry of the source.

How the values were obtained:
[1] = biological target: T1, protein-protein interactions (PPI) between CD163-SRCR5 domain and PRRSV GP2a protein (Sus scrofa, UniProt Q2VL90); assay: BiFC assay between SRCR5-VN and GP2a-VC proteins; type: cell-based, porcine CD163; PRRSV; conditions: HEK293T cells; compounds at 5 μM; 24 h; DMSO as Ctrl
T1 construct: The amplified cDNA fragments of SRCR2 or SRCR5 were subcloned into the pBiFC-VN155(I152L) vector; Myc tag (from vector backbone pMyc-CMV); expressed in transfected cells; host or cells: HEK293T
From the text: (§1) The N-terminus and C-terminus of the truncated Venus-I152L were inserted into vector backbone pMyc-CMV and pCMV-HA, constituting commercial plasmids pBiFC-VN155(I152L) and pBiFC-VC155, respectively (Addgene, Watertown, MA, USA). See Kodama and Hu, Biotechniques 49:793-805 (2010). cDNA fragments for the scavenger receptor cysteine-rich domain 2 (SRCR2) and SRCR5 of porcine CD163 receptor, and for PRRSV glycoproteins GP2a and GP4 were amplified by RT-PCR. The amplified cDNA fragments of SRCR2 or SRCR5 were subcloned into the pBiFC-VN155(I152L) vector digested with EcoRI/BglII. For constructions of GP2a and GP4 fusion proteins, cDNA fragments encoding GP2a or GP4 were subcloned into the pBiFC-VC155 vector digested with EcoRI/BglII. All plasmid clones were verified by DNA Sanger sequencing.
(§2) HEK293T cells cultured in 12-well plates were transfected with appropriate plasmids for each BiFC assay using FuGENE® 6 (Promega, Madison, WI, USA). After 5 h, various concentrations of chemical compounds were added to the culture media. DMSO was used as the vehicle control. Fluorescence images of treated cells at 24 h after plasmid transfection were captured using an inverted Nikon fluorescence microscope. Fluorescence intensity of treated cells was measured by ImageJ.
Using the previously described BiFC vector based on the fragmented venus protein (VN-155[I152L], hereafter named VN) and (VC-155, hereafter named VC), fusion protein constructs were established between the porcine CD163 protein SRCR5 or SRCR2 domain and VN, and between the PRRSV minor glycoproteins (GP2a or GP4) and VC (FIG. 1A, 2). See Kodama et al., Biotechniques 49(5): 793-805 (2010). These plasmids were co-expressed in HEK293T cells to evaluate the PPIs between the SRCR5 domain and GP2a or GP4.
The BiFC assays was tested to determine whether it could identify small molecules with potential to block the protein-protein interactions between CD163 and PRRSV. A customized virtual screen of a library of commercially available small molecules was performed with the AtomNet® model at a region centered around R561 (FIG. 3) based on the available 3-D protein structure of porcine CD163-SRCR5 domain, and 74 compounds predicted to target this potential binding site were procured. Ma et al., J. Virol. 91(3): e01897-16 (2017). These compounds were tested using the BiFC assay, to evaluate their ability to inhibit the PPI between GP2a and SRCR5. Plasmids were co-transfected in HEK293T cells, 4 h later, compounds were individually administered to cells at 5 μM. Twenty-four hours later, images were taken under a fluorescence microscope and the fluorescence quantified. […] Until these studies, there has been no known biological activity reported for compound B7.

type I strain (Lelystad) = assay: PRRSV titration assay, type I strain; type: cell-based; conditions: 15 μM; PAMs; 24 h
Experimental: (§3) For PRRSV infection of PAM cells, PAMs were seeded one day prior to infection. Control cells were treated with DMSO and test cells were treated with the selected screening compounds (5-20 μM) for 4 h before inoculation, during the 1 h PRRSV inoculation, and for 24 h after inoculation. Cells were inoculated with VR-2332, SDSU73, NADC30 or Lelystad PRRSV at MOI=0.1 for 1 h. The 24 h cell medium supernatant was stored at −80° C. until use.
(§4) For PRRSV titration assay, MARC145 cells were seeded in 48-well plates and grew to ˜80% density before inoculation. Viral supernatants were prepared by 10-fold serial dilution, and 100 μl of the dilutions was added per well in six replicates. Inocula were removed from cells after 2 h and replaced with 0.5 mL of DMEM supplemented with 2% FBS, 2 mM glutamine, 0.1 mM MEM non-essential amino acids, 50 U/mL penicillin, and 50 μg/mL streptomycin (Invitrogen). Cells were cultured at 37° C. for 6 days and any cytopathic effects were observed and recorded. The PRRSV titer was calculated using the Reed and Muench method and expressed as median tissue culture infectious dose (TCID50/mL). Reed and Muench, Am. J. Epidemiol. 27(3): 493-497 (1938).
(§5) The inhibitory effect of B7 was further tested on multiple strains of PRRSV. […]

PRRSV strain VR-2332 [2] = assay: PRRSV titration assay of culture media of infected PAMs; type: cell-based; conditions: for log reduction of viral titer: pre- and post-inoculation treatment
Experimental: (§6) For PRRSV infection of PAM cells, PAMs were seeded one day prior to infection. […] Cells were inoculated with VR-2332, SDSU73, NADC30 or Lelystad PRRSV at MOI=0.1 for 1 h. The 24 h cell medium supernatant was stored at −80° C. until use.
as §4

[3] = biological target: T2, PPI between PRRSV GP4 glycoprotein and CD163-SRCR5 domain (Sus scrofa, UniProt Q2VL90); assay: BiFC assay between SRCR5-VN and GP4-VC proteins; type: cell-based, porcine CD163; PRRSV; conditions: HEK293T cells; DMSO as Ctrl
T2 construct: The amplified cDNA fragments of SRCR2 or SRCR5 were subcloned into the pBiFC-VN155(I152L) vector; Myc tag (from vector backbone pMyc-CMV); expressed in transfected cells; host or cells: HEK293T
From the text: as §1, with “All plasmid clones were verified by DNA Sanger sequencing.” left out
as §2, with “After 5 h, various concentrations of chemical compounds were added to the culture media. DMSO was used as the vehicle control.” left out, “ImageJ. […]” for “ImageJ.”
The BiFC assays was tested to determine whether it could identify small molecules with potential to block the protein-protein interactions between CD163 and PRRSV. […] Twenty-four hours later, images were taken under a fluorescence microscope and the fluorescence quantified. […]

[4] = tested on: 3 Type II PRRSV strains (VR-2332, SDSU73, NADC30); assay: PRRSV titration assay, Type II strains; type: cell-based; conditions: 15 μM; PAMs; 24 h
Experimental: as §3, §4, §5

PRRSV strain VR-2332 [5] = assay: qRT-PCR for PRRSV RNA in infected PAMs; type: cell-based
Experimental: Total RNA was extracted from PAMs infected with PRRSV using RNeasy Mini Kit (Qiagen, Germantown, MD) according to the manufacturer's instruction. RNA concentrations were measured using a Nanodrop spectrophotometer (Thermo Fisher Scientific). GAPDH was used as a housekeeping gene for gene expression normalization. Data were processed with the software associated with ABI 7500.
as §6

T1 sequence (Q2VL90 477-577): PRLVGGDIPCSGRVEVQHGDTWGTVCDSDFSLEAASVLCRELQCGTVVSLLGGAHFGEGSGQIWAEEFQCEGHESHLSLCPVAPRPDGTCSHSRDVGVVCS
T2 sequence (Q2VL90 477-577): as above

SMILES: Cc1cc(F)ccc1S(=O)(=O)Nc1nc2ccccc2nc1Nc1cccc(S(=O)(=O)N2CCOCC2)c1 [Compound B7, 4-fluoro-2-methyl-N-[3-(3-morpholin-4-ylsulfonylanilino)quinoxalin-2-yl]benzenesulfonamide]
- inhibition of PPI between GP2a and SRCR5 (venus fluorescence in BiFC assay) [1]: significantly inhibited the reconstitution of venus fluorescence; also recorded: positive inhibitory effect; also recorded: significantly inhibits the interaction
- log reduction of viral titer for the type I strain (Lelystad) (type I strain (Lelystad)): 2.2 log
- log reduction of viral titer (PRRSV strain VR-2332 [2]; 10 μM, 24 h): 1.7 log
- log reduction of PRRSV titer, post-inoculation treatment alone (PRRSV strain VR-2332 [2]; 15 μM, 24 h): 2.8 log
- log reduction of viral titer (PRRSV strain VR-2332 [2]; 15 μM, 24 h): 2.9 log
- inhibition of PRRSV infection of PAMs (titration of culture media) (PRRSV strain VR-2332 [2]; 10-20 μM B7, 24 h): inhibited PRRSV infection of PAMs effectively
- inhibition of PPI between PRRSV GP4 glycoprotein and CD163-SRCR5 domain (BiFC) [3]: also inhibited the PPI; also recorded: significantly inhibits the interaction
- log reduction of viral titers across the 3 Type II PRRSV strains [4]: 2.8-3.1 log
- inhibition of PRRSV infection of PAMs (qRT-PCR, viral RNA) (PRRSV strain VR-2332 [5]; 0, 5, 10, 15, 20 μM, 4 h pre-treatment, 1 h inoculation MOI=0.1, 24 h after inoculation): dose-dependent inhibition; also recorded: inhibits PRRSV infection of porcine alveolar macrophages (PAMs)
- inhibitory effect on PRRSV infection (qRT-PCR), pre-treatment alone (PRRSV strain VR-2332 [5]; 15 μM, 4 h pre-treatment only, no post-treatment, VR-2332): minimal impact
